Results: ChEMBL document CHEMBL1156482, “Molecular mechanism of action of monocyclam versus bicyclam non-peptide antagonists in the CXCR4 chemokine receptor” (J Biol Chem, 2007)
Calls of active or inactive are those of the source. The rule behind the calls is not given here.

What was measured:
[1] = system: Human immunodeficiency virus 1; assay: Antiviral activity against HIV1 NL43 infected in U87.CD4 cells expressing human CXCR4 D171N/D262N mutant; format: functional, organism-based
[2] = system: Human immunodeficiency virus 1; assay: Antiviral activity against HIV1 NDK infected in U87.CD4 cells expressing human CXCR4 D171ND262N mutant; format: functional, organism-based; details: Human immunodeficiency virus 1, NDK
[3] = system: Human immunodeficiency virus 1; assay: Antiviral activity against HIV1 clinical isolate 10 infected in U87.CD4 cells expressing human CXCR4 D171ND262N mutant; format: functional, organism-based; details: Human immunodeficiency virus 1, U87.CD4
[4] = system: C-X-C chemokine receptor type 4 (Homo sapiens), P61073 [H113A]; assay: Displacement of [125I]12G5 antibody from transmembrane domain 3 of human CXCR4 H113A mutant expressed in COS7 cells; format: cell-based; details: COS-7
[5] = system: C-X-C chemokine receptor type 4 (Homo sapiens), P61073 [D171N]; assay: Displacement of [125I]12G5 antibody from transmembrane domain 4 of human CXCR4 D171N mutant expressed in COS7 cells; format: cell-based; details: COS-7
[6] = system: C-X-C chemokine receptor type 4 (Homo sapiens), P61073 [H281A]; assay: Antagonist activity at human CXCR4 H281A mutant expressed in U87.CD4 cells assessed as inhibition of CXCL12-induced calcium mobilization; format: functional, cell-based
[7] = system: Human immunodeficiency virus 1; assay: Antiviral activity against HIV1 NL43 infected in U87.CD4 cells expressing human wild type CXCR4; format: functional, organism-based; details: Human immunodeficiency virus 1, NL43, U87.CD4
[8] = system: Human immunodeficiency virus 1; assay: Antiviral activity against HIV1 NDK infected in U87.CD4 cells expressing human wild type CXCR4; format: functional, organism-based; details: Human immunodeficiency virus 1, NDK
[9] = system: Human immunodeficiency virus 1; assay: Antiviral activity against HIV1 clinical isolate 10 infected in U87.CD4 cells expressing human wild type CXCR4; format: functional, organism-based; details: Human immunodeficiency virus 1, U87.CD4
[10] = system: Human immunodeficiency virus 1; assay: Antiviral activity against HIV1 NL43 infected in U87.CD4 cells expressing human CXCR4 D171N mutant; format: functional, organism-based; details: Human immunodeficiency virus 1, NL43, U87.CD4
[11] = system: Human immunodeficiency virus 1; assay: Antiviral activity against HIV1 NDK infected in U87.CD4 cells expressing human CXCR4 D171N mutant; format: functional, organism-based; details: Human immunodeficiency virus 1, NDK
[12] = system: Human immunodeficiency virus 1; assay: Antiviral activity against HIV1 clinical isolate 10 infected in U87.CD4 cells expressing human CXCR4 D171N mutant; format: functional, organism-based; details: Human immunodeficiency virus 1, U87.CD4
[13] = system: Human immunodeficiency virus 1; assay: Antiviral activity against HIV1 NDK infected in U87.CD4 cells expressing human CXCR4 D262N mutant; format: functional, organism-based; details: Human immunodeficiency virus 1, NDK
[14] = system: Human immunodeficiency virus 1; assay: Antiviral activity against HIV1 NL43 infected in U87.CD4 cells expressing human CXCR4 D262N mutant; format: functional, organism-based; details: Human immunodeficiency virus 1, NL43, U87.CD4
[15] = system: Human immunodeficiency virus 1; assay: Antiviral activity against HIV1 clinical isolate 10 infected in U87.CD4 cells expressing human CXCR4 D262N mutant; format: functional, organism-based; details: Human immunodeficiency virus 1, U87.CD4
[16] = system: Human immunodeficiency virus 1; assay: Antiviral activity against HIV1 NL43 infected in U87.CD4 cells expressing human CXCR4 H281A mutant; format: functional, organism-based; details: Human immunodeficiency virus 1, NL43, U87.CD4
[17] = system: Human immunodeficiency virus 1; assay: Antiviral activity against HIV1 NDK infected in U87.CD4 cells expressing human CXCR4 H281A mutant; format: functional, organism-based; details: Human immunodeficiency virus 1, NDK
[18] = system: Human immunodeficiency virus 1; assay: Antiviral activity against HIV1 clinical isolate 10 infected in U87.CD4 cells expressing human CXCR4 H281A mutant; format: functional, organism-based; details: Human immunodeficiency virus 1, U87.CD4
[19] = system: Human immunodeficiency virus 1; assay: Antiviral activity against HIV1 NL43 infected in U87.CD4 cells expressing human CXCR4 E288A mutant; format: functional, organism-based
[20] = system: Human immunodeficiency virus 1; assay: Antiviral activity against HIV1 NDK infected in U87.CD4 cells expressing human CXCR4 E288A mutant; format: functional, organism-based; details: Human immunodeficiency virus 1, NDK
[21] = system: Human immunodeficiency virus 1; assay: Antiviral activity against HIV1 clinical isolate 10 infected U87.CD4 cells expressing human CXCR4 E288A mutant; format: functional, organism-based; details: Human immunodeficiency virus 1, U87.CD4
[22] = system: C-X-C chemokine receptor type 4 (Homo sapiens), P61073 [I259A]; details: COS-7
Sequence of C-X-C chemokine receptor type 4 (Homo sapiens), P61073 [I259A] (P61073 whole entry I259A): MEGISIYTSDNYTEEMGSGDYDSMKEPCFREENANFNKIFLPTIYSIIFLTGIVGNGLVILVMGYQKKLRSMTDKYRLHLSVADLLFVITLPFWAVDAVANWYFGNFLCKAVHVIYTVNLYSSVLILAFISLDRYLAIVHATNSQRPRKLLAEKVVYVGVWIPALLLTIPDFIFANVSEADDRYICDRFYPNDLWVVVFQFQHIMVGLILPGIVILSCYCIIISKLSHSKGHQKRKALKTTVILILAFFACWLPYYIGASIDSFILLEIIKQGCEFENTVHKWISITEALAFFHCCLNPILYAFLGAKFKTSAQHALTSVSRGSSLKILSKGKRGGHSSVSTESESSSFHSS

Sequence of C-X-C chemokine receptor type 4 (Homo sapiens), P61073 [D171N] (P61073 whole entry D171N, the tested form may be a part): as the sequence (P61073 whole entry I259A) above, with D171N, A259I counted along it
Sequence of C-X-C chemokine receptor type 4 (Homo sapiens), P61073 [H113A] (P61073 whole entry H113A, the tested form may be a part): as the sequence (P61073 whole entry I259A) above, with H113A, A259I counted along it
Sequence of C-X-C chemokine receptor type 4 (Homo sapiens), P61073 [H281A] (P61073 whole entry H281A): as the sequence (P61073 whole entry I259A) above, with A259I, H281A counted along it

c1cc(CN2CCCNCCNCCCNCC2)ccc1CN1CCCNCCNCCCNCC1 [PLERIXAFOR]
Activity [1]: inactive | IC50 [2]: > 3000 nM | IC50 [3]: 2690 nM | logKi [4]: -5.71 | logKi [5]: -4.87 | Activity [6]: Active | IC50 [7]: 14 nM | IC50 [8]: 7.6 nM | IC50 [9]: 3 nM | IC50 [10]: 46 nM | IC50 [11]: 17 nM | IC50 [12]: 19 nM | IC50 [13]: > 3000 nM | IC50 [14]: > 600 nM | IC50 [15]: 2540 nM | IC50 [16]: < 1.9 nM | IC50 [17]: < 1.9 nM | IC50 [18]: 2.4 nM | Activity [19]: inactive | IC50 [20]: > 6000 nM | IC50 [21]: > 121 nM | logKi [22]: -5.81
